What is called IC50 is the concentration that inhibits the measured activity by half. The low end stands for higher potency, the high end for lower potency.

Structures are written as SMILES. The source made the active and inactive calls. No cut-off for these calls is given here. Bounds are passed on as bounds.

For experiment [1], the target named is 3',5'-cyclic-AMP phosphodiesterase 4B (Homo sapiens, UniProt Q07343). Description: Inhibition of core catalytic domains PDE4B (unknown origin).
In experiment [2] the target is T1, cGMP-inhibited 3',5'-cyclic phosphodiesterase 3A (Homo sapiens, UniProt Q14432). Description: Inhibition of core catalytic domains PDE3A (unknown origin) at 100 uM.
T1 sequence (Q14432 whole entry, the tested form may be a part): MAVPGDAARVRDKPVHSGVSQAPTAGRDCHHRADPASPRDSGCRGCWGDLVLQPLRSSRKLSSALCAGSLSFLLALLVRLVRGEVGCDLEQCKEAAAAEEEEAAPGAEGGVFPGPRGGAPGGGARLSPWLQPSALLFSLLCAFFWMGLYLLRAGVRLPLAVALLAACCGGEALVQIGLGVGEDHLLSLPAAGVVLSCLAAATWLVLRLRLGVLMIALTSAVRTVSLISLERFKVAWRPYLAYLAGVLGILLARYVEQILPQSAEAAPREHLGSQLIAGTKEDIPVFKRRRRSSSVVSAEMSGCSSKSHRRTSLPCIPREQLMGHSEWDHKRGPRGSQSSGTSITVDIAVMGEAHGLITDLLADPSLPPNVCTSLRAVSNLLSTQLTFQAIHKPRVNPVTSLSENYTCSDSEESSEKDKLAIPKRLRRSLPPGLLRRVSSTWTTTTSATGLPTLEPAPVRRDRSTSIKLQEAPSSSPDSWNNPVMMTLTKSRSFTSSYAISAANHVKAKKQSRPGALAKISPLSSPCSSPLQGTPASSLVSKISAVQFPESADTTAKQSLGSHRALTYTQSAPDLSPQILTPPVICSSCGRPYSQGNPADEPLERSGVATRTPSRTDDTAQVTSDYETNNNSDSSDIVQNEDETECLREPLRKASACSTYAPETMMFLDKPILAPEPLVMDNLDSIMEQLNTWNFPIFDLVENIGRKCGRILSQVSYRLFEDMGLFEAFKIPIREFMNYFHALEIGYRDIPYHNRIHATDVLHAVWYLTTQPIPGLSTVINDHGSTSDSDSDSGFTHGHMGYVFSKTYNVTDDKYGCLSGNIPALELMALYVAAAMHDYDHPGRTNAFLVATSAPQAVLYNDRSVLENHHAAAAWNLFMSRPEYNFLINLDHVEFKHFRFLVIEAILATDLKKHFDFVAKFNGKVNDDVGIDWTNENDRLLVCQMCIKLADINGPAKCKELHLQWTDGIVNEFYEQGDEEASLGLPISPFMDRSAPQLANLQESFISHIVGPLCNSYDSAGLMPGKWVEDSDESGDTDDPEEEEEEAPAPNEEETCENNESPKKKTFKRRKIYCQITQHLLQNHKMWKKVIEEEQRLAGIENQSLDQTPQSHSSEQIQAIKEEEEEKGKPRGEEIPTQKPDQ
In experiment [3] the test system is Rattus norvegicus. Description: Antiinflammatory activity in LPS-stimulated rat assessed as total number of leukocytes in bronchoalveolar lavage fluid at 3 mg/kg, po administered 1 hr before LPS challenge measured after 3 hrs. The class given is functional, Lung.
The target of experiment [4] is T1, cGMP-inhibited 3',5'-cyclic phosphodiesterase 3A. Description: Inhibition of core catalytic domains PDE3A (unknown origin).
Experiment [5] deals with Rattus norvegicus. In words: Antiinflammatory activity in LPS-stimulated rat assessed as total number of leukocytes in bronchoalveolar lavage fluid at 1 mg/kg, po administered 1 hr before LPS challenge measured after 3 hrs. The class given is functional, Lung.
Experiment [6] has as its system Rattus norvegicus. Description: Antiinflammatory activity in LPS-stimulated rat assessed as total number of leukocytes in bronchoalveolar lavage fluid at 10 mg/kg, po administered 1 hr before LPS challenge measured after 3 hrs. The class given is functional, Lung.

3',5'-cyclic-AMP phosphodiesterase 4B, sequence (Q07343 whole entry, the tested form may be a part): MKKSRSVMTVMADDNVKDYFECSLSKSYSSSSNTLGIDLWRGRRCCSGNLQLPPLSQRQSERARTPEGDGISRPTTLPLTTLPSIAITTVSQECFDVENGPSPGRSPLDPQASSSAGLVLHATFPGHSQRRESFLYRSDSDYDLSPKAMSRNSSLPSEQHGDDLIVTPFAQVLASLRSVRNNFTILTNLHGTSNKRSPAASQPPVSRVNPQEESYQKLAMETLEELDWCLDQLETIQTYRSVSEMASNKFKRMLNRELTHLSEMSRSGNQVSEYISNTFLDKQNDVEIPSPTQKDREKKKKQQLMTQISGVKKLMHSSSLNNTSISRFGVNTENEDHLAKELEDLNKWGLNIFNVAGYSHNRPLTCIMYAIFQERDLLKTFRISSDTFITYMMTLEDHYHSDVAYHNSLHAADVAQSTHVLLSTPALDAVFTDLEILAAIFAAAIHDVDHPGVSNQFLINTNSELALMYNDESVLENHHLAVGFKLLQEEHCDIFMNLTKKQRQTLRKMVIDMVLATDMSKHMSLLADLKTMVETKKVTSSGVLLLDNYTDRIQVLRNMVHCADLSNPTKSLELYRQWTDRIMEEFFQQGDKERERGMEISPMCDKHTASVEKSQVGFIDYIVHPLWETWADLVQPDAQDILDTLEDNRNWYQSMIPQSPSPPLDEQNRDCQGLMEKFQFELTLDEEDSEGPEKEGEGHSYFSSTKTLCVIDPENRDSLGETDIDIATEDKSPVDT

The compound `COc1ccc(C(=O)Cc2ccncc2)c2cc(C(F)(F)F)nn12` had an IC50 in experiment [1] of 9.4 nM. In experiment [2], the inhibition result was “inactive”.
With `COc1ccc(C(=O)Nc2c(Cl)cncc2Cl)c2cc(C(C)O)nn12` (centres undefined), in experiment [3], the Activity is given as 60%. In experiment [1], half-maximal inhibition (IC50) required 83 nM. In addition, in experiment [2], the inhibition entry is “inactive”.
In the case of `COc1ccc(Cc2ccncc2)c2cc(C(F)(F)F)nn12`, the IC50 is 570 nM in experiment [1] and > 100000 nM in experiment [4].
As to `COc1ccc(C(=O)Nc2c(Cl)c[n+]([O-])cc2Cl)c2ccnn12`, the Activity in experiment [3] is reported as 57%. The compound also displayed an IC50 in experiment [1] of 2.7 nM. Moreover, the inhibition result in experiment [2] was “inactive”.
`COc1ccc(C(=O)Nc2c(Cl)c[n+]([O-])cc2Cl)c2cc(C3CC3)nn12`: in experiment [5], the Activity was determined as 62%. The IC50 in experiment [1] was 2.8 nM. For the same compound, the inhibition result in experiment [2] is “inactive”.
`COc1cccc2c(C(=O)Nc3c(Cl)cncc3Cl)c(C(F)(F)F)nn12` returned an IC50 in experiment [1] of 6130 nM. Moreover, in experiment [2], the inhibition result is “inactive”.
Regarding `COc1ccc(C(=O)Cc2c(Cl)cncc2Cl)c2cc(C(F)(F)F)nn12`, the Activity in experiment [6] was determined as 87%. This compound registered an IC50 in experiment [1] of 2.9 nM. The inhibition result in experiment [2] was “inactive”.
On to `COc1ccc(/C=C/c2c(Cl)cncc2Cl)c2cc(C(F)(F)F)nn12`, for which the Activity in experiment [3] was 39%. In experiment [1], half-maximal inhibition (IC50) was put at 5.5 nM. The inhibition result in experiment [2] is “inactive”.
`COc1ccc(C(O)Cc2ccncc2)c2cc(C(F)(F)F)nn12` (centres undefined) displayed an IC50 in experiment [1] of 750 nM. Moreover, in experiment [2], the inhibition result is “inactive”.
Take `COc1ccc(C(=O)Nc2c(Cl)cncc2Cl)c2cc(C(C)C)nn12`: the Activity in experiment [3] was 64%. Further, in experiment [1], the IC50 was found to be 110 nM. In experiment [2], the inhibition result was “inactive”.
Turning to `COc1ccc(C(=O)Nc2c(Cl)cncc2Cl)c2cc(C#N)nn12`, the Activity in experiment [3] is 66%. Besides, the IC50 in experiment [1] is 4.1 nM; in experiment [4] it was > 100000 nM.
For `COc1ccc(C(=O)Nc2c(Cl)cncc2Cl)c2cc(C3CC3)nn12`, in that order: 71%, 0.51 nM and > 100000 nM.
`COCc1cc2c(C(=O)Nc3c(Cl)c[n+]([O-])cc3Cl)ccc(OC)n2n1`: the Activity in experiment [3] is 18%. In addition, in experiment [1], half-maximal inhibition (IC50) required 50 nM. Besides, the inhibition entry in experiment [2] is “inactive”.
The corresponding values for `CNc1ccc(C(=O)Nc2c(Cl)cncc2Cl)c2cc(C(F)(F)F)nn12` are 33%, 0.19 nM and “inactive”.
As to `COc1cccc2c(C(=O)Nc3c(Cl)c[n+]([O-])cc3Cl)c(C(F)(F)F)nn12`, in experiment [1], the midpoint of inhibition, the IC50, lay at 16600 nM. The inhibition result in experiment [2] is “inactive”.
Regarding `CCc1cc2c(C(=O)Nc3c(Cl)c[n+]([O-])cc3Cl)ccc(OC)n2n1`, the Activity in experiment [3] came to 40%. The compound further yielded an IC50 in experiment [1] of 9.4 nM. In addition, the inhibition result in experiment [2] was “inactive”.
As to `COc1ccc(C2=NNC(=O)CC2C)c2cc(C(F)(F)F)nn12` (single isomer, unassigned; (-)), the Activity in experiment [5] was determined as 79%.
For `O=C(Nc1c(Cl)cncc1Cl)c1ccc(OC(F)F)c(OCC2CC2)c1` [ROFLUMILAST], the Activity in experiment [6] is 59%. Also, the IC50 in experiment [4] is > 100000 nM.
Consider `CC(O)c1ccc(C(=O)Nc2c(Cl)cncc2Cl)c2cc(C(F)(F)F)nn12` (centres undefined), for which the Activity in experiment [3] is reported as 59%. In addition, the IC50 was 8 nM in experiment [1] and > 100000 nM in experiment [4].
For `COc1ccc(CCc2ccncc2)c2cc(C(F)(F)F)nn12`, the Activity in experiment [3] is recorded as 55%. The compound further showed an IC50 in experiment [1] of 4.9 nM. Besides, in experiment [2], the inhibition result was “inactive”.
For `COCc1ccc(C(=O)Nc2c(Cl)cncc2Cl)c2cc(C(F)(F)F)nn12`, in that order: 31%, 4.5 nM and “inactive”.
With `COc1ccc(NC(=O)c2c(Cl)cncc2Cl)c2cc(C(F)(F)F)nn12`, the IC50 in experiment [1] is 240 nM. Moreover, the inhibition result in experiment [2] is “inactive”.
As to `CCc1cc2c(C(=O)Nc3c(Cl)cncc3Cl)ccc(OC)n2n1`, the Activity in experiment [3] was 53%. Also, the IC50 was 7 nM in experiment [1] and > 100000 nM in experiment [4].
With `COc1ccc(C(=O)Nc2c(Cl)cncc2Cl)c2cc(C(F)(F)F)nn12`, the Activity in experiment [5] was 60%. In experiment [1], this compound gave a 50% inhibitory concentration (IC50) of 0.27 nM. Further, the inhibition result in experiment [2] was “inactive”.
Turning to `CC(=O)c1ccc(C(=O)Nc2c(Cl)cncc2Cl)c2cc(C(F)(F)F)nn12`, in experiment [3], the Activity was determined as 43%. The compound further showed an IC50 in experiment [1] of 21 nM. The inhibition entry in experiment [2] is “inactive”.
As for `COc1ccc(C(=O)Nc2c(Cl)cncc2Cl)c2ccnn12`, the Activity in experiment [3] is 0%. The IC50 was 39 nM in experiment [1] and > 100000 nM in experiment [4].
Consider `COc1ccc(C(=O)Nc2c(Cl)cncc2Cl)c2cc(C(F)F)nn12`, for which the Activity in experiment [3] was determined as 32%. Half-maximal inhibition in experiment [1] (IC50) was put at 0.2 nM. Moreover, the inhibition result in experiment [2] was “inactive”.
`COc1ccc(C(=O)Nc2c(Cl)cncc2Cl)c2cc(C(=O)O)nn12` registered a 50% inhibitory concentration (IC50) in experiment [1] of 550 nM. Besides, in experiment [2], the inhibition entry was “inactive”.
For the compound `CSc1ccc(C(=O)Nc2c(Cl)cncc2Cl)c2cc(C(F)(F)F)nn12`, the Activity in experiment [3] is 52%. The IC50 was 0.11 nM in experiment [1] and > 100000 nM in experiment [4].
As to `COc1ccc(C(=O)Nc2c(Cl)cncc2Cl)c2cc(C=O)nn12`, in experiment [3], the Activity stood at 64%. The same compound had an IC50 in experiment [1] of 9.8 nM. In addition, the inhibition result in experiment [2] was “inactive”.
For `COc1ccc(C(=O)Nc2c(Cl)c[n+]([O-])cc2Cl)c2cc(C#N)nn12`, in that order: 61%, 22 nM and “inactive”.
Take `COc1ccc(CNc2c(Cl)cncc2Cl)c2cc(C(F)(F)F)nn12`: the values for the IC50 in experiment [1] and in experiment [4] were 150 nM and 71400 nM, respectively.
Compound `COc1ccc(C(O)c2ccncc2)c2cc(C(F)(F)F)nn12` (centres undefined) gave an IC50 in experiment [1] of 10200 nM. In addition, the inhibition entry in experiment [2] is “inactive”.
As for `COc1ccc(C(=O)Nc2c(Cl)c[n+]([O-])cc2Cl)c2cc(C(C)C)nn12`, in experiment [6], the Activity was 63%. This compound showed an IC50 in experiment [1] of 10 nM. Moreover, in experiment [2], the inhibition entry was “inactive”.
Regarding `COc1ccc(/C=C/c2ccncc2)c2cc(C(F)(F)F)nn12`, the Activity in experiment [3] was 57%. Besides, the results for the IC50 in experiment [1] and in experiment [4] were 15 nM and 67100 nM, respectively.
With `COCc1cc2c(C(=O)Nc3c(Cl)cncc3Cl)ccc(OC)n2n1`, in experiment [5], the Activity was 54%. The compound also gave an IC50 in experiment [1] of 13 nM. Further, the inhibition entry in experiment [2] was “inactive”.
As to `COc1ccc(C(=O)Nc2c(Cl)c[n+]([O-])cc2Cl)c2cc(C(F)(F)F)nn12`, the Activity in experiment [3] came to 77%. This compound also showed an IC50 in experiment [1] of 1.5 nM. The inhibition entry in experiment [2] is “inactive”.
In experiment [1], `COc1ccc(C(O)Cc2c(Cl)cncc2Cl)c2cc(C(F)(F)F)nn12` (centres undefined) registered an IC50 of 39 nM. The inhibition result in experiment [2] is “inactive”.
As to `COc1ccc(C(=O)C(=O)c2ccncc2)c2cc(C(F)(F)F)nn12`, the IC50 in experiment [1] was determined as 1260 nM. Besides, the inhibition entry in experiment [2] is “inactive”.
In the case of `COc1ccc(C(=O)Nc2c(Cl)cncc2Cl)c2cc(/C=N/O)nn12`, the Activity in experiment [3] is listed as 41%. Also, the IC50 was 5.1 nM in experiment [1] and > 100000 nM in experiment [4].
Turning to `O=C(Nc1c(Cl)cncc1Cl)c1ccc(CO)n2nc(C(F)(F)F)cc12`, the Activity in experiment [3] came to 26%. Besides, the IC50 in experiment [1] stood at 31 nM. For the same compound, the inhibition result in experiment [2] is “inactive”.
In experiment [1], `COc1ccc(C(=O)c2ccncc2)c2cc(C(F)(F)F)nn12` had an IC50 of 980 nM. In experiment [2], the inhibition entry is “inactive”.
With `COc1ccc(C(=O)Nc2c(Cl)cncc2Cl)c2cc(C(C)=O)nn12`, in experiment [3], the Activity turned out to be 41%. Besides, the IC50 in experiment [1] is 2.9 nM; in experiment [4], > 100000 nM.

These data come from ChEMBL document CHEMBL2424518, “Phosphodiesterase inhibitors. Part 6: design, synthesis, and structure-activity relationships of PDE4-inhibitory pyrazolo[1,5-a]pyridines with anti-inflammatory activity” (Bioorg Med Chem Lett, 2013).
